Data from the OPERA property sets (Mansouri et al. 2018).

| logP | Compound |
| --- | --- |
| 2.45 | CNC(=O)c1csc(-c2ccc(C(C)C(=O)O)cc2)n1 (stereo unspecified) |
| 3.72 | CCc1cnc(-c2ccc(C(C)C(=O)O)cc2)s1 (stereo unspecified) |
| 3.74 | Cc1nc(-c2ccc(C(C)C(=O)O)cc2F)sc1C (stereo unspecified) |
| 3.62 | C=Cc1csc(-c2ccc(C(C)C(=O)O)cc2)n1 (stereo unspecified) |
| 2.79 | CC(C(=O)O)c1ccc(-c2nccs2)cc1 (stereo unspecified) |
| 3.36 | Cc1nc(-c2ccc(C(C)C(=O)O)cc2)sc1C (stereo unspecified) |
| 2.56 | COCc1csc(-c2ccc(C(C)C(=O)O)cc2)n1 (stereo unspecified) |
| 3.15 | Cc1cnc(-c2ccc(C(C)C(=O)O)cc2)s1 (stereo unspecified) |
| 2.15 | CC(C(=O)O)c1ccc(-c2nc(C(=O)N(C)C)cs2)cc1 (stereo unspecified) |
| 2.65 | CC(=O)c1csc(-c2ccc(C(C)C(=O)O)cc2)n1 (stereo unspecified) |
| 4.41 | CC(C(=O)O)c1ccc(-c2nc3c(s2)CCCC3)cc1 (stereo unspecified) |
| 3.75 | CCc1csc(-c2ccc(C(C)C(=O)O)cc2)n1 (stereo unspecified) |
| 2.25 | CC(C(=O)O)c1ccc(-c2nc(CO)cs2)cc1 (stereo unspecified) |
| 3.94 | Cc1nc(-c2ccc(C(C)C(=O)O)cc2Cl)sc1C (stereo unspecified) |
| 3.03 | Cc1csc(-c2ccc(C(C)C(=O)O)cc2)n1 (stereo unspecified) |
| 3.99 | CCc1nc(-c2ccc(C(C)C(=O)O)cc2)sc1C (stereo unspecified) |
| 4.29 | CC(C)c1csc(-c2ccc(C(C)C(=O)O)cc2)n1 (stereo unspecified) |

Second part, the molecule before the results:

| Compound | logP |
| --- | --- |
| Cc1csc(-c2ccc(C(C)C(=O)O)cc2Cl)n1 (stereo unspecified) | 3.65 |
| CSc1cc(C(C)C(=O)O)ccc1-c1nccs1 (stereo unspecified) | 3.02 |
| CCc1csc(-c2ccc(C(C)C(=O)O)cc2Cl)n1 (stereo unspecified) | 4.28 |
| CCCCc1csc(-c2ccc(C(C)C(=O)O)cc2F)n1 (stereo unspecified) | 5.24 |
| CC(C(=O)O)c1ccc(-c2nc(-c3ccccc3)cs2)cc1 (stereo unspecified) | 4.95 |
| CC(C(=O)O)c1ccc(-c2nc(C(N)=O)cs2)cc1 (stereo unspecified) | 2.17 |
| CC(C(=O)O)c1ccc(-c2nccs2)c(Cl)c1 (stereo unspecified) | 3.39 |
| CC(C(=O)O)c1ccc(-c2nc(C(F)(F)F)cs2)cc1 (stereo unspecified) | 3.78 |
| C=CCc1csc(-c2ccc(C(C)C(=O)O)cc2)n1 (stereo unspecified) | 4.11 |
| CC(C)c1csc(-c2ccc(C(C)C(=O)O)cc2Cl)n1 (stereo unspecified) | 4.78 |
| CC(C(=O)O)c1ccc(-c2nccs2)c(F)c1 (stereo unspecified) | 3.14 |
| CC(C(=O)O)c1ccc(-c2nccs2)c(C(F)(F)F)c1 (stereo unspecified) | 3.06 |
| Cc1cnc(-c2ccc(C(C)C(=O)O)cc2F)s1 (stereo unspecified) | 3.55 |
| Cc1csc(-c2ccc(C(C)C(=O)O)cc2F)n1 (stereo unspecified) | 3.52 |
| COc1cc(C(C)C(=O)O)ccc1-c1nccs1 (stereo unspecified) | 2.47 |
| CC(C)c1csc(-c2ccc(C(C)C(=O)O)cc2F)n1 (stereo unspecified) | 4.62 |
| Cc1cnc(-c2ccc(C(C)C(=O)O)cc2Cl)s1 (stereo unspecified) | 3.66 |
| CC(C(=O)O)c1ccc(-c2nccs2)c([N+](=O)[O-])c1 (stereo unspecified) | 2.06 |
| CC(C(=O)O)c1ccc(-c2nccs2)c(Br)c1 (stereo unspecified) | 3.35 |
| Cc1cc(C(C)C(=O)O)ccc1-c1nccs1 (stereo unspecified) | 3.06 |
| CCc1csc(-c2ccc(C(C)C(=O)O)cc2F)n1 (stereo unspecified) | 4.16 |
| CCCCc1csc(-c2ccc(C(C)C(=O)O)cc2Cl)n1 (stereo unspecified) | 5.36 |
| CC(C(=O)O)c1ccc(-c2nccs2)c(O)c1 (stereo unspecified) | 3.18 |
| CCc1cnc(-c2ccc(C(C)C(=O)O)cc2F)s1 (stereo unspecified) | 4.1 |
| CCCCc1csc(-c2ccc(C(C)C(=O)O)cc2)n1 (stereo unspecified) | 4.83 |
| CCc1nc(-c2ccc(C(C)C(=O)O)cc2F)sc1C (stereo unspecified) | 4.44 |
| CCc1nc(-c2ccc(C(C)C(=O)O)cc2Cl)sc1C (stereo unspecified) | 4.62 |
| CC(C(=O)O)c1ccc(-c2nccs2)c(N)c1 (stereo unspecified) | 2.45 |
| CCc1cnc(-c2ccc(C(C)C(=O)O)cc2Cl)s1 (stereo unspecified) | 4.39 |
